Reference: patent US12291494B2, “Methods of treating fibrosis” (Nogra Pharma Limited, priority 2012, dated 2025)

Legend:
C57BL/6 mice [1] = assay: DSS chronic colitis (Ex. 7): assessment of colitis course; format: in vivo
Experimental: Chronic colitis and fibrosis were induced in mice by oral administration of 2.5% (w/v) DSS in drinking water, for three cycles (5 day DSS, 7 days of water). Animals were monitored daily for food and fluid intake and were weighed at the beginning of the study and thereafter regularly every three days.
The mice were randomly divided into two groups: i. DSS and ii. DSS+GED. Each group consisted of 25 mice and was compared with 10 control animals, which received only water. GED (30 mg/kg/mouse) was dissolved in a solution containing 0.5% Carboxymethylcellulose sodium salt (CMC; MW: 90,000 Da; Sigma Aldrich) and 1% Tween 80 and was administrated daily by oral gavage (100 μl/mouse). GED was administered at the beginning of second cycle.
Animals were observed daily for fluid intake, weight changes, and examined for signs of colitis including weight loss, diarrhoea, rectal bleeding and prolapse as well as signs of systemic inflammation such as piloerection, lethargy, and periorbital exudates.

[2] = system: main markers of fibrosis (Collagen I-III, CTGF, SMAD 2/3, PDGF, α-SMA, and TGF-β1); assay: DSS intestinal fibrosis study: immunohistochemical analysis of colon; format: in vivo, mice
Experimental: For the immunohistochemical analysis, tissue specimens from the colon were fixed in fresh 4% paraformaldehyde (PFA)/PBS solution for 3 h at room temperature, dehydrated in a graded ethanol series, and embedded in low-temperature-fusion paraffin. 3-μm-thick sections were incubated in methanol for 40 min and then in 3% hydrogen peroxide for 5 min. Samples were incubated overnight with specific antibodies against collagen types I-III (Abcam), connective tissue growth factor (CTGF) (Abcam), Platelet Derived Growth factor (PDGF), SMAD2/3, the main markers of fibrosis. The samples were washed for 5 min with PBS and incubated with streptavidin-biotin-peroxidase conjugated secondary antibody (Dako LSAB Corporation, cod K0675, Dako-Cytomation, Milano). After a wash in PBS for 10 min the sections were subjected to incubation with 3,3-diaminobenzidine-tetrahydrochloride for 1-3 min.
The specificity of immune reaction was performed omitting the primary antibodies Finally the samples were stained with hematoxylin of Mayer and observed under the Olympus BX51 Light Microscope (Olympus, Optical Co. Ltd., Tokyo, Japan).

C57bl6 mice = assay: DSS intestinal fibrosis study: level of fibrosis by Picrosirius red staining; format: in vivo; settings: colon; DSS vehicle 2.27±0.12, control 1.12±0.07
Experimental: Samples of colon obtained were promptly fixed with 10% buffered formalin in PBS (pH 7.4) for 3 h, dehydrated in graded ethanol and embedded in low-temperature-fusion paraffin. Formalin-fixed colonic tissue was processed and 5 μm thick paraffin sections were stained with Picrosirius red staining for histological analysis. Pictures were obtained with a ×20 objective. Each section was analyzed blindly by 3 different experimenters for the quantification of the degree of fibrosis using a score from 0 to 4.

C57BL/6 mice [3] = assay: DSS chronic colitis (Ex. 7): microscopic colonic lesions (H&E, Masson's trichrome); format: in vivo
Experimental: The macroscopic colonic lesions including dilation, thickness and stenosis were scored by an independent observer, unaware of the mice treatment. Tissue specimens from the colon were dissected and immediately frozen or fixed in fresh 4% formaldehyde (FA)/PBS solution for 3 h at room temperature followed by the standard procedure for paraffin embedding. Paraffin embedded tissues transversally sectioned at 3 μm were subject to Hematoxylin/Eosin staining, to assess the inflammatory degree, and Masson trichrome to better assess connective tissue and fibrosis. […] The degree of intestinal inflammation was assessed according to the density and extent of chronic inflammatory infiltrate, loss of goblet cells, and bowel wall thickening. […]
Intestinal fibrosis was scored as absent, mild, or severe, depending on the density and extent of trichrome-positive connective tissue staining and disruption of tissue architecture.

IL-13 = assay: DSS chronic colitis (Ex. 7): Western blot, IL-13; format: in vivo, mice; settings: percentage of optical density vs control group, normalized with GAPDH; DSS 189.5%±28.71%
Experimental: 0.5 cm of frozen colonic samples were cut and mechanically homogenized in RIPA Buffer containing 50 mMTrisHCl pH 7.6, 150 mMNaCl, 1.5 mM MgCl2, 5 mM EDTA, 1% Triton-X and 10% Glycerol, supplemented with 100 mM Sodium Fluoride (NaF), 2 mM Sodium Orthovanadate (Na3VO4), 10 mM Sodium Pyrophosphate (NaPPi), 1 mMphenylmethanesulphone (PMSF) and a classical protease-inhibitor cocktail containing 10 μg/mL Leupeptin and Aprotinin.
30 μg of protein for each sample were separated by PAGE and electroblotted. 100% pure Nitrocellulose membranes were incubated (according with a specific protocol for each antibody) with primary antibodies directed against TGF-β1, CTGF, α-SMA, Collagen-I and GAPDH (purchased from Abcam, Cambridge, UK; 1:1000 for 2 h at RT), and IL-13 (purchased from Antibodies online; 1:1000 for 2 h at RT) diluted in 5% non fat-milk in 0.1% TBS-t. […] Optical density of target bands was determined using a computer-assisted densitometer and the ImageJ public domain software (W. S., Rasband, ImageJ, U. S. National Institutes of Health, Bethesda, MD; http://rsb.info.nih.gov/ij/, 1997-2011). Tissue levels were expressed as units of Optical Density (OD) per quantity of total proteins, normalizing with internal control GAPDH and the results were expressed as percentage of control groups.

`COC(Cc1ccc(N)cc1)C(=O)O` (racemic) [Compound 34, (±)-2-methoxy-3-(4′-aminophenyl) propionic acid] was tested, and the Body weight (C57BL/6 mice [1]; chronic DSS colitis, GED 30 mg/kg oral daily, mean ± SEM) was 25.132 ± 0.458 ^, the Mortality (C57BL/6 mice [1]; chronic DSS colitis, GED 30 mg/kg oral gavage daily, DSS 2) was 0 n. mice and the “mice with systemic manifestations (piloerection, periorbital exudates and/or lethargy)” value (C57BL/6 mice [1]; seventh day of DSS oral administration, DSS mice 40%) was 30%. The “mice with moderate to severe diarrhea” value (C57BL/6 mice [1]; seventh day of DSS oral administration, DSS mice 70%) was 50%, the “main markers of fibrosis (Collagen I-III, CTGF, SMAD 2/3, PDGF, α-SMA, TGF-β1) by IHC” value ([2]; colon of DSS mice vs colitic mice receiving vehicle, FIG. 9A-9E) was “a reduction of the main markers of fibrosis” and the “collagen staining (immunohistochemical analysis)” value ([2]; colon of DSS mice, FIG. 9A) was “decrease in the collagen staining”. For the same compound, the “level of fibrosis, score from 0 to 4 (Picrosirius red)” value (C57bl6 mice) was 1.625±0.15, the “intestinal wall architecture (H&E, Masson's trichrome)” value (C57BL/6 mice [3]; FIG. 12 legend, result in words) was “restoring of normal intestinal wall architecture” and the “Total microscopic score (maximum 10)” value (C57BL/6 mice [3]; daily oral GED, DSS 6.45±0.82, FIG. 12) was 3.36±0.55. For the same compound, the “IL-13 expression level (Western blot)” value (IL-13) was 88.88%±14.01%.
